Experiment [1] has as its system H9 human embryonic stem cells. In words: Mitochondrial membrane potential of human embryonic stem cells by JC-1 staining. In kind it is cell-based. As to conditions: 0.1 mM nicotinamide in mTeSR1. The method, then: In an example of the present invention, the membrane potential (ΔΨm) of mitochondria was measured after treatment with nicotinamide. When human embryonic stem cells were maintained and cultured, the membrane potential of mitochondria in the human embryonic stem cells was measured by JC-1 staining after addition of various concentrations of nicotinamide to mTeSR1. After JC-1 staining, activated mitochondria are stained with red, and non-activated mitochondria are stained with green. The ratio of the number of red-stained mitochondria to the number of green-stained mitochondria is measured, and an increase in the ratio indicates an increase in activated mitochondria.
In addition, the present inventors measured the membrane potential (ΔΨm) of mitochondria. When human embryonic stem cells were maintained and cultured, various concentrations of nicotinamide were added to mTeSR1, and then the mitochondrial membrane potential of the human embryonic stem cells was measured by JC-1 staining. After JC-1 staining, activated mitochondria are stained with red, and non-activated mitochondria are stained with green. The ratio of the number of red-stained mitochondria to the number of green-stained mitochondria is measured, and an increase in the ratio indicates an increase in the number of activated mitochondria.

Experiment [2] deals with human fibroblasts transfected with reprogramming factor OSKM. The experiment in a line: Mitochondrial membrane potential during reprogramming (JC-1, flow cytometry). In kind it is cell-based. As to conditions: 1 mM. The method, then: At different time points of reprogramming, the cells of a control group and a nicotinamide-treated group (Nam) were dissociated with single cells by trypsin, and then stained with JC-1 (5,5′,6,6′-tetraachloro-1,1′,3,3′-tetraethylbenzimidazolocarbocyanine iodide) solution at 37° C. for 15 minutes. After washing, the degree of fluorescence staining was measured by flow cytometry, relative mitochondrial membrane potential was quantified by the red/green ratio.

In a further experiment the test system is p53, p21 and p16. The experiment in a line: Expression of senescence-associated signaling factors (immunostaining, Western blot, real-time PCR). In kind it is cell-based, human. The method, then: Total RNA was isolated from produced cells using an RNeasy Mini kit (Qiagen, Valencia, Calif.) and reverse-transcribed using a SuperScript First-strand synthesis system kit (Invitrogen) according to the manufacturer's instruction. Then, semi-quantitative RT-PCR was performed using a platinum Tag SuperMix kit (Invitrogen) under the following conditions: 94° C. for 3 minutes, and then 25-30 cycles, each consisting of 94° C. for 30 sec, 60° C. for 30 sec and 72° C. for 30 sec, followed by extension at 72° C. for 10 minutes.
For immunostaining, cells were seeded on Matrigel-coated 4-well Lab-Tek chamber slides (Nunc, Naperville, Ill.) and cultured for 5 days under the indicated conditions. […]
Cells were lysed with RIPA buffer (containing 50 mM Tris, pH 8.0, 150 mM NaCl, 1% NP-40, 0.1% SDS, 0.5% deoxycholic acid, 1 mM PMSF) and mixed with a protease inhibitor (Roche Applied Science, Indianapolis, Ind.) on ice for 15 minutes, followed by centrifugation at 20,000×g at 4° C. for 10 minutes. The supernatant was re-centrifuged for 10 minutes, and the protein concentration was measured using a BCA protein assay kit (Pierce, Rockford, Ill.). […] The density of the bands was analyzed using Image Gauge software (Fuji Photo Film GMBH, D) and normalized to the bands of the loading control (β-actin). […]

In experiment [3] the test system is human fibroblasts transfected with reprogramming factor OSKM. The experiment in a line: Measurement of reactive oxygen species during reprogramming. To be noted: 1 mM, day 19 of induction of reprogramming. In kind it is cell-based. Here is the method:
On day 19 of induction of reprogramming, the cells were dissociated into single cells by trypsin, and then stained with 5 μM of CM-H2DCFDA (2,7-dichlorodihydrofluresceindiacetat) at 37° C. for 30 minutes. Cells treated with 100 μM of hydrogen peroxide (H2O2) were used as a positive control group for the formation of reactive oxygen species, and the degree of fluorescence staining was measured by flow cytometry and quantified.

As to `NC(=O)c1cccnc1` [nicotinamide], the “number of activated mitochondria / mitochondrial membrane potential (JC-1 red/green)” value in experiment [1] is reported as “significantly increased”. Besides, in experiment [2], the “membrane potential of mitochondria in reprogramming conditions” value is “the membrane potential was maintained”. In addition, the “mRNA and protein expression levels of p53, p21 and p16” value in the experiment on p53, p21 and p16 (1 mM, reprogramming process) is given as “significantly decreased”. Also, the “inhibition of expression of senescence factors p53, p27, p21 and p16” value in the experiment with p53, p21 and p16 (high concentration (20 mM)) is reported as “did not appear”. For the same molecule, the “formation of reactive oxygen species” value in experiment [3] is given as “inhibited”.

The values are drawn from patent publication US20150072416A1, “METABOLITE FOR IMPROVING PRODUCTION, MAINTENANCE AND PROLIFERATION OF PLURIPOTENT STEM CELLS, COMPOSITION COMPRISING THE SAME, AND METHOD OF CULTURING PLURIPOTENT STEM CELL USING THE SAME” (KOREA RESEARCH INSTITUTE OF BIOSCIENCE AND BIOTENOLOGY, priority 2012, published 2015).
